Measured values: patent US10308667B2, “Oxadiazolopyridine derivatives for use as ghrelin O-acyl transferase (GOAT) inhibitors” (Boehringer Ingelheim International GmbH, priority 2016, dated 2019)
pIC50: −log10 of the molar value.

Target: human GOAT (Homo sapiens (Human), UniProt Q96T53)
Assay: Determination of hGOAT Activity in HEK293 Cells after Incubation with Test Compound
Format: cell-based
Conditions: HEK293 cells stably transfected with preproghrelin and human GOAT; octanoate-BSA 100 μM; acyl-ghrelin in medium by ELISA after 5 hours
Method in brief: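 HEK293 cells stably expressing preproghrelin and human GOAT were given serum-free medium with 100 μM octanoate-BSA plus compound (0.3% DMSO) for 5 h. Acyl-ghrelin in the medium was quantified by ELISA (A405, standard curve) as % of vehicle. IC50 was fitted from 8 concentrations.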

Chain of human GOAT (Q96T53 whole entry): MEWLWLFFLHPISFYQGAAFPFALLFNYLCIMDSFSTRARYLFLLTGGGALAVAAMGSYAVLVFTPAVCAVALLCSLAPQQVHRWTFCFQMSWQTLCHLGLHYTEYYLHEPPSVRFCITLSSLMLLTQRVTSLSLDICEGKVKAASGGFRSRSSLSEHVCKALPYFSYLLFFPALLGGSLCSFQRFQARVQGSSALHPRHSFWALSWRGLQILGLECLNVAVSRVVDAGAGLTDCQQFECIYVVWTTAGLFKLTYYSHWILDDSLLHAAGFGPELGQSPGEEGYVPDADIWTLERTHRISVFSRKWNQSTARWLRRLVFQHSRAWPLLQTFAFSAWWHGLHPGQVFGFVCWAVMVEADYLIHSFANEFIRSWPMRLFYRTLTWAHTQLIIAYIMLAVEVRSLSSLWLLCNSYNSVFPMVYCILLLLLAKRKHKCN

SMILES | pIC50
Cc1nc2nonc2c(N)c1Cc1ccc(C#N)c(OCCCF)n1 [Example 108, 6-(7-Amino-5-methyl-[1,2,5]oxadiazolo[3,4-b]pyridin-6-ylmethyl)-2-(3-fluoro-propoxy)-nicotinonitrile] | 10.59
Cc1nc2nonc2c(N)c1Cc1ccc(Br)c(NC2CC(F)(F)C2)n1 [Example 128, 6-[5-Bromo-6-(3,3-difluoro-cyclobutylamino)-pyridin-2-ylmethyl]-5-methyl-[1,2,5]oxadiazolo[3,4-b]pyridin-7-ylamine] | 10.02
CSc1cccc(Cc2c(C)nc3nonc3c2N)n1 [Example 16, 5-Methyl-6-(6-methylsulfanyl-pyridin-2-ylmethyl)-[1,2,5]oxadiazolo[3,4-b]pyridin-7-ylamine] | 9.55
Cc1nc2nonc2c(N)c1Cc1ccc(Br)c(S(C)(=O)=O)n1 [Example 161, 6-(5-Bromo-6-methanesulfonyl-pyridin-2-ylmethyl)-5-methyl-[1,2,5]oxadiazolo[3,4-b]pyridin-7-ylamine] | 9.05
Cc1nc2nonc2c(N)c1Cc1ccc(C#N)c(C2CC2)n1 [Example 43, 6-(7-amino-5-methyl-[1,2,5]oxadiazolo[3,4-b]pyridin-6-ylmethyl)-2-cyclopropylpyridine-3-carbonitrile] | 9.43
Cc1nc2nonc2c(N)c1Cc1cccc(C2(C#N)CCCC2)n1 [Example 64, 1-[6-(7-Amino-5-methyl-[1,2,5]oxadiazolo[3,4-b]pyridin-6-ylmethyl)-pyridin-2-yl]-cyclopentanecarbonitrile] | 10.00
Cc1cnn(C)c1-c1ccc(Cc2c(C)nc3nonc3c2N)nc1N [Example 68, 6-[6-Amino-5-(2,4-dimethyl-2H-pyrazol-3-yl)-pyridin-2-ylmethyl]-5-methyl-[1,2,5]oxadiazolo[3,4-b]pyridin-7-ylamine] | 9.96
Cc1nc2nonc2c(N)c1Cc1ccc(Br)cn1 [Example 5, 6-(5-Bromo-pyridin-2-ylmethyl)-5-methyl-[1,2,5]oxadiazolo[3,4-b]pyridin-7-ylamine] | 9.62
Cc1nc2nonc2c(N)c1Cc1ncc(Br)c(C(F)F)n1 [Example 84, 6-[5-bromo-4-(difluoromethyl)pyrimidin-2-yl]methyl-5-methyl-[1,2,5]oxadiazolo[3,4-b]pyridin-7-amine] | 9.68
